According to ChEMBL document CHEMBL1687864, “Carijodienone from the octocoral Carijoa multiflora. A spiropregnane-based steroid” (2011):

How the values were obtained:
Type in all cases: functional
Staphylococcus aureus = experiment: Antibacterial activity against Staphylococcus aureus by broth macrodilution method
Salmonella = experiment: Antibacterial activity against Salmonella by broth macrodilution method
Escherichia coli = experiment: Antibacterial activity against Escherichia coli by broth macrodilution method
Bacillus cereus = experiment: Antibacterial activity against Bacillus cereus by broth macrodilution method
Enterococcus faecalis = experiment: Antibacterial activity against Enterococcus faecalis by broth macrodilution method
Klebsiella pneumoniae = experiment: Antibacterial activity against Klebsiella pneumoniae by broth macrodilution method
Proteus mirabilis = experiment: Antibacterial activity against Proteus mirabilis by broth macrodilution method

Measured: MIC

C=C[C@H]1CC[C@H]2[C@@H]3CCC4=CC(=O)C=C[C@]4(C)[C@H]3CC[C@]12C
> 40 µg/mL: Staphylococcus aureus | Salmonella | Escherichia coli | Bacillus cereus | Enterococcus faecalis | Klebsiella pneumoniae | Proteus mirabilis

C=C[C@H]1CC[C@H]2[C@@H]3CC[C@@]4(C=CC(=O)C=C4C)[C@H]3CC[C@]12C [CARIJODIENONE]
5 µg/mL: Klebsiella pneumoniae
6 µg/mL: Bacillus cereus
